Experimental data from PMC7807051, “Modulation of cAMP metabolism for CFTR potentiation in human airway epithelial cells” (Scientific Reports, 2021).
Read-outs that look alike come from different tables or passages of the source.

Tests used:
[1] = system: CFTR; test: In vitro CFTR membrane potential assay in Calu-3 cells; type: cell-based, human; settings: for EC50: Calu-3 cells, cAMP inducer alone
Protocol: An in vitro CFTR membrane potential assay was performed on Calu-3 cells and primary human bronchial epithelial cells, from two independent donors, cultured at 37 °C as previously described. All human samples were collected from consented individuals under ethics approval granted by Hamilton Integrated Research Ethics Board (Project Number 5099-T).
Calu-3 cells were grown for 21 days on 96-well plates and primary HBECs were grown for 14 days under air–liquid interface conditions on collagen-coated (Sigma-Aldrich) 6.5 mm Transwell Inserts (Corning). All cells were washed with HBSS prior to experimental conditions. After washing with HBSS, cells were loaded with BLUE Membrane Potential Dye (Molecular Devices, #R8042) dissolved in 37 °C chloride-free buffer (NMDG Gluconate Buffer – 150 mM NMDG-gluconate, 3 mM KCl, 10 mM HEPES, pH 7.35, 300 mOsm). Immediately after dye loading, CFTR activity measurements were taken. CFTR activity measurements are fluorescent readouts for detecting ion channel activity. CFTR inhibition was performed with CFTRinh-172 (10 μM) for all experiments to attribute changes in fluorescence as CFTR channel activity. This assay has been validated using proof of concept studies where results obtained from this assay were able to recapitulate findings obtained from direct measurements of ion channel activity using Ussing chambers. At the end of this assay, raw data was exported for statistical analysis.
For Calu-3 cells, measurements were taken during baseline (40 min), cAMP elevation (30 min), and CFTR inhibition (20 min). cAMP elevation was performed using forskolin or isoproterenol (0.0005–50 μM). For assays with ABCC4 or PDE-4 inhibitors, a pre-incubation with the inhibitors (30 min) in the plate reader was performed prior to cAMP elevation. CFTR modulator VX-770 was used at 1 μM. CFTR activity was determined by dividing a single membrane potential peak measurement after the ABCC4 or PDE-4 inhibition and cAMP elevation additions to the stabilized baseline over DMSO control.
For in vitro CFTR membrane potential assays, in Calu-3 cells, values were normalized to the averaged baseline over averaged vehicle (DMSO) control of all biological replicates. SD was calculated using data from biological replicates (n = 4–8). An area under the curve (AUC), half-maximal concentration (EC50), […] (Emax), and baseline analysis was performed for each individual replicate then averaged together. The AUC analysis is an aggregate measure of sensitivity and maximal response, allowing for the observation of the total net responsiveness of the cells. The AUC analysis was done by normalizing the individual replicates to the bottom most value of the averaged vehicle control. In primary HBECs, six independent measurements were taken within a single Transwell insert. The value is the average of at least six measurements. These values were normalized to the averaged baseline over the averaged vehicle (DMSO) control. SD was calculated by treating the six measurements as independent, with additional technical replicates (n = 6–18). An AUC and max peak analysis were performed for each measurement, then averaged together. The max peak analysis was the max CFTR activity achieved during the drug addition step.
In order to compare the independent experiments performed, a fold-change analysis using individual AUC, EC50, and Emax, determined from their respective concentration–response curves, was performed and was normalized to the averaged DMSO vehicle control. A one-way ANOVA with subsequent post-hoc test or a paired t-test was performed. Statistical analysis was performed using GraphPad Prism 6.

[2] = target: T1, ABCC4 (Homo sapiens, UniProt O15439); test: In vitro extracellular cAMP assay of ABCC4 inhibitors in Calu-3 cells; type: cell-based; settings: IBMX 20 μM pre-treatment, forskolin 10 μM, normalized to IBMX + forskolin, read-out: half maximal inhibitory concentration (IC50), extracellular cAMP
T1 construct: ABCC4 was present in both HBEC6-KT and Calu-3 cells at all-time points, indicated by the bands present at 150 kDa; endogenous in cells; host or cells: HBEC6-KT (immortalized human bronchial epithelial cells)
T1 sequence (O15439 1-1325): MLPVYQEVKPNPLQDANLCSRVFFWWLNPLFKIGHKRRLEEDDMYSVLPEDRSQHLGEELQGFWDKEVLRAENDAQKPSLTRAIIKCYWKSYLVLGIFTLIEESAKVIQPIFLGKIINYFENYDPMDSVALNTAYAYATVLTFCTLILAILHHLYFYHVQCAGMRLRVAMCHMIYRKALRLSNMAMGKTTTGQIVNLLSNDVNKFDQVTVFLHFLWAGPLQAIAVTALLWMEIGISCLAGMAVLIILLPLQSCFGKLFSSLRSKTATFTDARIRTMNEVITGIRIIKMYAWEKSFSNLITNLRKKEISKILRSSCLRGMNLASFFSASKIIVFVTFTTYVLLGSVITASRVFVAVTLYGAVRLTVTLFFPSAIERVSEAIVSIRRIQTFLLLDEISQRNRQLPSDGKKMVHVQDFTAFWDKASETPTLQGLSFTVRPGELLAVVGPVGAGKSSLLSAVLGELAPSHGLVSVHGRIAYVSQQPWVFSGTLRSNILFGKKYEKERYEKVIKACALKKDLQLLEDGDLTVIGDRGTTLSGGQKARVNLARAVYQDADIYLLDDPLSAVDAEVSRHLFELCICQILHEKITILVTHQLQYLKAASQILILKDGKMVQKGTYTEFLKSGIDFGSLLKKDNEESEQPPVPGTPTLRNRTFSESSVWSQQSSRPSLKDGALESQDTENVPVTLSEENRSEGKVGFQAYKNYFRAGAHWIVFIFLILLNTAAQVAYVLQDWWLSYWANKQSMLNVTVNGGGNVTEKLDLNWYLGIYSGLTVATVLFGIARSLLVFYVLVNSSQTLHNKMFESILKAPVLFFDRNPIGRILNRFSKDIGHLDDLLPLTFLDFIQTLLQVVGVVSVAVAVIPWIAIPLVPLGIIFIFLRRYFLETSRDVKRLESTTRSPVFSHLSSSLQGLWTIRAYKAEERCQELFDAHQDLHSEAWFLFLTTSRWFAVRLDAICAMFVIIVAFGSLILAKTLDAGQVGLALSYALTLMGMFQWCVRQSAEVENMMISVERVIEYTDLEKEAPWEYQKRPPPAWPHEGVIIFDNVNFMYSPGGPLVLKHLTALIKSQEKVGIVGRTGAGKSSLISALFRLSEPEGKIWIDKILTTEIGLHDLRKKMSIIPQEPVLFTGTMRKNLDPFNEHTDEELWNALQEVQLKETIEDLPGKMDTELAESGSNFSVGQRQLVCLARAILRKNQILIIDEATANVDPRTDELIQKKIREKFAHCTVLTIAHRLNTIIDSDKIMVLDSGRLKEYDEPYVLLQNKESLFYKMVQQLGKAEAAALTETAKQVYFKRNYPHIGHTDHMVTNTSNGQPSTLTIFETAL
Protocol: Cell culture supernatants were assessed for cAMP levels 24 h post-treatment.
(§1) Cells were pretreated with IBMX (20 μM) for 2 h prior to experimental conditions. After the pre-treatment of IBMX, cells were treated with ABCC4 inhibitors (0.01–100 μM) or DMSO for 30 min. Following these exposures, the cells were treated with forskolin (10 μM) for 6 h and cell-culture supernatants were collected for analysis of extracellular cAMP. The negative control was IBMX alone and the positive control was IBMX and forskolin.
(§2) For the in vitro extracellular cAMP assay, values were normalized to the positive control (IBMX and forskolin) and the half maximal inhibitory concentration (IC50) was determined. SD was calculated using data from biological replicates (n = 4–5).

[3] = target: T1, ABCC4; test: In vitro extracellular cAMP assay of ABCC4 inhibitors in HBEC6-KT cells; type: cell-based; settings: IBMX 20 μM pre-treatment, forskolin 10 μM, normalized to IBMX + forskolin, read-out: half maximal inhibitory concentration (IC50), extracellular cAMP
Protocol: as §1, §2
Cell culture supernatants were assessed for cAMP levels 24h post-treatment.

[4] = Calu-3, forskolin (FSK) curve with agent vs DMSO control
[5] = Calu-3, forskolin (FSK) curve with agent vs DMSO control, VX-770 1 μM, MK-571 1.8 μM, Ceefourin-1 4.8 μM, Roflumilast 1 μM, Rolipram 10 μM, IBMX 100 μM
[6] = Calu-3, isoproterenol (ISO) curve with agent vs DMSO control
[7] = Calu-3, isoproterenol (ISO) curve with agent vs DMSO control, same agent concentrations as E5
[8] = read-out: half maximal effective concentration (EC50), CFTR activity

Cn1c(CSc2nc3ccccc3s2)n[nH]c1=S [Ceefourin-1]
Baseline of concentration–response curve, CFTR activity [1, 4]: No combination of ABCC4 inhibitor and cAMP-elevating agent changed CFTR activity | EC50 of concentration–response curve, CFTR activity [1, 4]: No combination of ABCC4 inhibitor and cAMP-elevating agent changed CFTR activity | Emax of concentration–response curve, CFTR activity [1, 4]: No combination of ABCC4 inhibitor and cAMP-elevating agent changed CFTR activity | AUC of concentration–response curve, CFTR activity [1, 5]: No combination of ABCC4 inhibitor and cAMP-elevating agent changed CFTR activity | Baseline of concentration–response curve, CFTR activity [1, 6]: No combination of ABCC4 inhibitor and cAMP-elevating agent changed CFTR activity | EC50 of concentration–response curve, CFTR activity [1, 6]: No combination of ABCC4 inhibitor and cAMP-elevating agent changed CFTR activity | Emax of concentration–response curve, CFTR activity [1, 6]: No combination of ABCC4 inhibitor and cAMP-elevating agent changed CFTR activity | AUC of concentration–response curve, CFTR activity [1, 7]: No combination of ABCC4 inhibitor and cAMP-elevating agent changed CFTR activity | IC50 [2]: 700 nM | IC50 [3]: 4800 nM

C=C[C@@]1(C)CC(=O)[C@]2(O)[C@@]3(C)[C@@H](O)CCC(C)(C)[C@@H]3[C@H](O)[C@H](OC(C)=O)[C@@]2(C)O1 [FSK, forskolin]
EC50 [1, 8]: 190 nM

CC(C)Cn1c(=O)n(C)c(=O)c2[nH]cnc21 [IBMX]
AUC of concentration–response curve, CFTR activity [1, 5]: Significant increases | Baseline of concentration–response curve, CFTR activity [1, 6]: significant increases | AUC of concentration–response curve, CFTR activity [1, 7]: Significant increases

CC(C)NCC(O)c1ccc(O)c(O)c1 (stereo not drawn) [ISO, isoproterenol]
maximal degree of change for CFTR activity ([1]; Calu-3, ISO compared with FSK, inducers alone): greater | EC50 [1, 8]: 70 nM | EC50 ([1]; value in picture, no unit, read-out: EC50, CFTR activity (Figure 3)): 66 nM

CN(C)C(=O)CCSC(SCCC(=O)O)c1cccc(/C=C/c2ccc3ccc(Cl)cc3n2)c1 (stereo not drawn) [MK-571]
Baseline of concentration–response curve, CFTR activity [1, 4]: No combination of ABCC4 inhibitor and cAMP-elevating agent changed CFTR activity | EC50 of concentration–response curve, CFTR activity [1, 4]: No combination of ABCC4 inhibitor and cAMP-elevating agent changed CFTR activity | Emax of concentration–response curve, CFTR activity [1, 4]: No combination of ABCC4 inhibitor and cAMP-elevating agent changed CFTR activity | AUC of concentration–response curve, CFTR activity [1, 5]: No combination of ABCC4 inhibitor and cAMP-elevating agent changed CFTR activity | Baseline of concentration–response curve, CFTR activity [1, 6]: No combination of ABCC4 inhibitor and cAMP-elevating agent changed CFTR activity | EC50 of concentration–response curve, CFTR activity [1, 6]: No combination of ABCC4 inhibitor and cAMP-elevating agent changed CFTR activity | Emax of concentration–response curve, CFTR activity [1, 6]: No combination of ABCC4 inhibitor and cAMP-elevating agent changed CFTR activity | AUC of concentration–response curve, CFTR activity [1, 7]: No combination of ABCC4 inhibitor and cAMP-elevating agent changed CFTR activity

COc1ccc(C2CNC(=O)C2)cc1OC1CCCC1 (stereo not drawn) [Rolipram]
Baseline of concentration–response curve, CFTR activity [1, 4]: not different | EC50 of concentration–response curve, CFTR activity [1, 4]: not different | Emax of concentration–response curve, CFTR activity [1, 4]: not different | AUC of concentration–response curve, CFTR activity [1, 5]: not FSK | Baseline of concentration–response curve, CFTR activity [1, 6]: not different | EC50 of concentration–response curve, CFTR activity [1, 6]: not different | Emax of concentration–response curve, CFTR activity [1, 6]: not different | AUC of concentration–response curve, CFTR activity [1, 7]: significant increases
